From ChEMBL document CHEMBL4680367, “Targeting Stimulator of Interferon Genes (STING) for the Potential Treatment of Cancer and Infectious Diseases” (ACS Med Chem Lett, 2021)
pEC50: −log10 of the molar value.

Target: Stimulator of interferon genes protein (Homo sapiens, UniProt Q86WV6)
Experiment: Agonist activity at full length human STING expressed in HEK293T cotransfected with pISRE-luc and cGAS incubated for 24 hrs by steady-glo luciferase reporter gene assay
Type: cell-based

Sequence of Stimulator of interferon genes protein (Q86WV6 whole entry): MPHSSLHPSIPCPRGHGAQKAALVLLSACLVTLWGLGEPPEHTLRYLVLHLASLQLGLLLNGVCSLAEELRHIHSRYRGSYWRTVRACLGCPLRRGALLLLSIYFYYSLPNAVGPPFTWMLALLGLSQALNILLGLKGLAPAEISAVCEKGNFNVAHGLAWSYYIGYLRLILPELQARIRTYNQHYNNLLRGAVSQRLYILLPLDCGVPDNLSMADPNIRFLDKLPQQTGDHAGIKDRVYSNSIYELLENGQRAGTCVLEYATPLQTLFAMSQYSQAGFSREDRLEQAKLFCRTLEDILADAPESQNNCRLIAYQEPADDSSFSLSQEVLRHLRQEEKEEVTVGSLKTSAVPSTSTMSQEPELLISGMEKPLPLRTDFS

## CCCn1c(NC(=O)c2cc(C)nn2CC)nc2cc(C(N)=O)cc(OCN3CCOCC3)c21
  pEC50: 6.00
